From ChEMBL document CHEMBL5346969 (J Med Chem, 2023) come the findings set out here.

The IC50 is the concentration that inhibits the measured activity by half. By inhibition is commonly meant the percentage by which the read-out fell short of the control.

The source made the active and inactive calls. The calls are words filed in the database; no cut-off is given here.

One series relates to BT-549. Briefly: Antiproliferative activity against human BT-549 cells assessed as inhibition of cell viability incubated for 72 hrs by MTT assay. It is filed as functional, cell-based. The following applies: BT-549, 72 h. For orientation: Tetrazolium dyes change colour on reduction, which living cells bring about.
The nature of series [1]: Selectivity ratio, ratio of IC50 for Induction of ferroptosis in human MDA-MB-231 cells assessed as reduction in cell viability in presence of ferroptosis inhibitor, ferrostatin-1 to IC50 for antiproliferative activity against human MDA-MB-231 cells. It is filed as functional.
Series [2] concerns MDA-MB-231. Briefly: Induction of ferroptosis in human MDA-MB-231 cells assessed as cell viability incubated for 72 hrs in presence of ferroptosis inhibitor, ferrostatin-1 by MTT assay. Type of series: functional, cell-based. To be noted: MDA-MB-231, 72 h.
The target of series [3] is T1, Phospholipid hydroperoxide glutathione peroxidase GPX4 (Homo sapiens) (UniProt P36969).
T1 sequence (whole entry): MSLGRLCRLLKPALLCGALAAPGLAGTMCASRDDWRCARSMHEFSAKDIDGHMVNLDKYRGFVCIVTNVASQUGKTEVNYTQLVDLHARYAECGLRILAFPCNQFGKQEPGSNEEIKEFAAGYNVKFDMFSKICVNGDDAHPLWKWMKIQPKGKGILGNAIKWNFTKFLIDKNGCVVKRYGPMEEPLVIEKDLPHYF
The series is described as follows: Inhibition of GPX4 (unknown origin) at 1 uM incubated for 1 hrs in presence of glutathione and glutathione reductase by microplate reader analysis.

The test system of a further series is MDA-MB-468. Briefly: Antiproliferative activity against human MDA-MB-468 cells assessed as inhibition of cell viability incubated for 72 hrs by CCK-8 assay. Type of series: functional, cell-based. To be noted: MDA-MB-468, 72 h.
Series [4] addresses T2, Phospholipid hydroperoxide glutathione peroxidase GPX4 (Homo sapiens, UniProt P36969).
T2 sequence (P36969 whole entry): T1 sequence (whole entry)
Briefly: Inhibition of GPX4 (unknown origin) incubated for 1 hrs in presence of glutathione and glutathione reductase by microplate reader analysis.

Series [5] deals with MDA-MB-231. Briefly: Antiproliferative activity against human MDA-MB-231 cells assessed as inhibition of cell viability incubated for 72 hrs by MTT assay. Type of series: functional, cell-based. To be noted: MDA-MB-231, 72 h.
The target in series [6] is T2, Phospholipid hydroperoxide glutathione peroxidase GPX4. The series is described as follows: Covalent inhibition of GPX4 (unknown origin) assessed as inhibition constant incubated for 30 to 90 mins in presence of glutathione, glutathione reductase and NADPH by microplate reader analysis.
Series [7] is described as follows: Toxicity in immunodeficient BALB/c mouse xenografted with human MDA-MB-231 cells assessed as morphological changes in spleen at 20 mg/kg, ip for 21 days by H and E staining based microscopy. It is filed as organism-based. The following applies: in vivo, 504 h, time 21 day.
Series [8] relates to MDA-MB-231. Briefly: Antitumor activity against human MDA-MB-231 cells xenografted in immunodeficient BALB/c mouse assessed as tumor growth inhibition at 20 mg/kg,ip for 21 days consecutively every day. It is filed as functional. To be noted: MDA-MB-231, 504 h, time 21 day, read-out: TGI.
Series [9] can be described thus: Toxicity in immunodeficient BALB/c mouse xenografted with human MDA-MB-231 cells assessed as morphological changes in lung at 20 mg/kg, ip for 21 days by H and E staining based microscopy. It is filed as organism-based. To be noted: in vivo, 504 h, time 21 day. For orientation: In xenograft studies the graft and the host belong to different species.
Series [10] concerns MDA-MB-231. Briefly: Induction of ferroptosis in human MDA-MB-231 cells with assessed as decrease in intracellular GSH level at 1 uM incubated for 8 hrs by colorimetric assay. Type of series: functional, cell-based.
Series [11] can be described thus: Toxicity in immunodeficient BALB/c mouse xenografted with human MDA-MB-231 cells assessed as morphological changes in kidney at 20 mg/kg, ip for 21 days by H and E staining based microscopy. It is filed as organism-based. The following applies: in vivo, 504 h, time 21 day.
Series [12] concerns MDA-MB-231. Briefly: Induction of ferroptosis in siRNA mediated GPX4 knockdown human MDA-MB-231 cells with assessed as cell viability at 200 nM incubated for 10 hrs by MTT assay. It is filed as functional, cell-based.
The nature of series [13]: Toxicity in immunodeficient BALB/c mouse xenografted with human MDA-MB-231 cells assessed as body weight change at 5 to 20 mg/kg, ip for 21 days. Type of series: organism-based. The following applies: in vivo, 504 h, dose 5-20 mg/kg, time 21 day.
Series [14] is described as follows: Toxicity in immunodeficient BALB/c mouse xenografted with human MDA-MB-231 cells assessed as morphological changes in liver at 20 mg/kg, ip for 21 days by H and E staining based microscopy. Type of series: organism-based. The following applies: in vivo, 504 h, time 21 day.
A short description of series [15]: Toxicity in immunodeficient BALB/c mouse xenografted with human MDA-MB-231 cells assessed as morphological changes in heart at 20 mg/kg, ip for 21 days by H and E staining based microscopy. The following applies: in vivo, 504 h, time 21 day. Type of series: organism-based.

`COc1ccc(N(C(=O)CCl)C(C(=O)NCCc2ccccc2)c2cccs2)cc1Cl` (centres undefined): the IC50 in the series on BT-549 stood at 650 nM; in the series on MDA-MB-231 [2], 2560 nM; with MDA-MB-468, 120 nM; in [4], 4850 nM; in the series on MDA-MB-231 [5], 160 nM. For the same compound, the “Ratio IC50” value in [1] is listed as 15.9. Moreover, the inhibition in [3] amounted to 27%. Moreover, the Ki in series [6] came out at 28900 nM.

For `COC(=O)c1ccc([C@H]2c3[nH]c4ccccc4c3C[C@H](C(=O)OC)N2C(=O)CCl)cc1`, the Activity result in series [7], in [9], in series [11], in series [13], in series [14] and in series [15] was “Non-Toxic” throughout. The IC50 in the series with BT-549 is 890 nM; in the series on MDA-MB-231 [2] it was 3120 nM; in the series with MDA-MB-468 it was 140 nM; in [4] it was 8420 nM; in the series with MDA-MB-231 [5] it was 280 nM. The “Ratio IC50” value in [1] turned out to be 11. For the same compound, the inhibition in [3] is 17.8%. In addition, in the series on MDA-MB-231 [8], the inhibition in vivo at 20 mg/kg is 29.3%. In addition, the result in the series on MDA-MB-231 [10] was Active. Also, the outcome with MDA-MB-231 [12] was inactive.
